# Source: PMC9676650, “Binding pocket stabilization by high-throughput screening of yeast display libraries” (Frontiers in Molecular Biosciences, 2022)
# Changes are numbered by the printed parent chain. Where “and” joins values, the source holds several entries; their conditions need not be identical. Identical values can stand only once.
# Columns and labels:
# FKBP51 variant G64E = biological target: T1, FKBP51 variant G64E (Homo sapiens, UniProt Q13451, G64E); assay: Fluorescence polarization tracer binding, FKBP51 G64E; conditions: for Fold change in Kd improvement: FKBP51 G64E compared to WT; for Kd: FKBP51 G64E, 0.5 nM SAFit-FL, 5 nM Mcyc-TA or 1 nM FK [431]-TA, 30 min room temperature
# T1 construct: made in house; host or cells: E. coli BL21 (DE3)
# T1 sequence (Q13451 1-140 G64E): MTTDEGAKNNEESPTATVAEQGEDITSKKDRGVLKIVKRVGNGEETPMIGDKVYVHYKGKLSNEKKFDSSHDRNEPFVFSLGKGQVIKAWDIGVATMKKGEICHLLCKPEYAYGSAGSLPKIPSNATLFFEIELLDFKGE
# Source text: (§1) All ligands and tracers used for fluorescence polarization assays had purities of more than 95%. The following ligands and tracers were used for fluorescence polarization and FACS screening experiments: •SAFit-FL tracer (1): Fluorescein conjugated analog of the iFit ligand class. •Mcyc-TA tracer (2): TAMRA conjugated macrocyclic ligand (5). •FK [431]-TA tracer (3): TAMRA conjugated FK [431] ligand (6). •SAFit1 ligand (4): analog of the iFit ligand class. •macrocyclic ligand (5):macrocyclic analog of the SAFit class ligands. •FK [431] ligand (6):bicyclic analog of the immunosuppressive drug FK506
# (§2) The binding of the generated FKBP51 variants to different conformation-sensitive FKBP ligands was investigated by fluorescence polarization assays. Therefore, a serial dilution of the respective FKBP51 variant in assay buffer (20 mM HEPES pH 8.0, 150 mM NaCl, 0.015% Triton X-100) was placed in a 384-well assay plate and a defined amount of the respective fluorescent tracer (0.5 nM of the SAFit based tracer SAFit-FL (1), 5 nM of the macrocyclic tracer Mcyc-TA 2) or 1 nM of the FK [431]-TA 3) in assay buffer was added to the protein buffer mixture. After incubation for 30 min at room temperature, the fluorescence polarization was measured with a plate reader. The obtained results for each 3 independent experiments were normalized with respect to the maximal binding signal and fitted to a one-site binding model as described by [Wang et al., 1992] yielding the respective binding constants. tracer bound=100/Lt×0.5×(Rt+Lt+KD−(Rt+Lt+KD)^2−4×LtRt) With L t , total concentration of the tracer, R t , total concentration of the receptor and K D binding constant of the complex RL.
# FKBP51 variant G64R = biological target: T2, FKBP51 variant G64R (Homo sapiens, UniProt Q13451, G64R); assay: Fluorescence polarization tracer binding, FKBP51 G64R; conditions: for Fold change in Kd improvement: FKBP51 G64R compared to WT; for Kd: FKBP51 G64R, 0.5 nM SAFit-FL, 5 nM Mcyc-TA or 1 nM FK [431]-TA, 30 min room temperature
# T2 construct: made in house; host or cells: E. coli BL21 (DE3)
# T2 sequence (Q13451 1-140 G64R): T1 sequence (Q13451 1-140 G64E) with E64R
# Source text: as §1, §2
# FKBP51 variant D68Y = biological target: T3, FKBP51 variant D68Y (Homo sapiens, UniProt Q13451, D68Y); assay: Fluorescence polarization tracer binding, FKBP51 D68Y; conditions: for Fold change in Kd improvement: FKBP51 D68Y compared to WT; for Kd: FKBP51 D68Y, 0.5 nM SAFit-FL, 5 nM Mcyc-TA or 1 nM FK [431]-TA, 30 min room temperature
# T3 construct: made in house; host or cells: E. coli BL21 (DE3)
# T3 sequence (Q13451 1-140 D68Y): T1 sequence (Q13451 1-140 G64E) with E64G, D68Y
# Source text: as §1, §2
# FKBP51 variant G64A = biological target: T4, FKBP51 variant G64A (Homo sapiens, UniProt Q13451, G64A); assay: Fluorescence polarization tracer binding, FKBP51 G64A; conditions: for Fold change in Kd improvement: FKBP51 G64A compared to WT; for Kd: FKBP51 G64A, 0.5 nM SAFit-FL, 5 nM Mcyc-TA or 1 nM FK [431]-TA, 30 min room temperature
# T4 construct: made in house; host or cells: E. coli BL21 (DE3)
# T4 sequence (Q13451 1-140 G64A): T1 sequence (Q13451 1-140 G64E) with E64A
# Source text: as §1, §2
# FKBP51 variant S69Y = biological target: T5, FKBP51 variant S69Y (Homo sapiens, UniProt Q13451, S69Y); assay: Fluorescence polarization tracer binding, FKBP51 S69Y; conditions: for Fold change in Kd improvement: FKBP51 S69Y compared to WT; for Kd: FKBP51 S69Y, 0.5 nM SAFit-FL, 5 nM Mcyc-TA or 1 nM FK [431]-TA, 30 min room temperature
# T5 construct: made in house; host or cells: E. coli BL21 (DE3)
# T5 sequence (Q13451 1-140 S69Y): T1 sequence (Q13451 1-140 G64E) with E64G, S69Y
# Source text: as §1, §2
# FKBP51 variant G64D = biological target: T6, FKBP51 variant G64D (Homo sapiens, UniProt Q13451, G64D); assay: Fluorescence polarization tracer binding, FKBP51 G64D; conditions: for Fold change in Kd improvement: FKBP51 G64D compared to WT; for Kd: FKBP51 G64D, 0.5 nM SAFit-FL, 5 nM Mcyc-TA or 1 nM FK [431]-TA, 30 min room temperature
# T6 construct: made in house; host or cells: E. coli BL21 (DE3)
# T6 sequence (Q13451 1-140 G64D): T1 sequence (Q13451 1-140 G64E) with E64D
# Source text: as §1, §2
# FKBP51 variant N63A = biological target: T7, FKBP51 variant N63A (Homo sapiens, UniProt Q13451, N63A); assay: Fluorescence polarization tracer binding, FKBP51 N63A; conditions: for Fold change in Kd improvement: FKBP51 N63A compared to WT; for Kd: FKBP51 N63A, 0.5 nM SAFit-FL, 5 nM Mcyc-TA or 1 nM FK [431]-TA, 30 min room temperature
# T7 construct: made in house; host or cells: E. coli BL21 (DE3)
# T7 sequence (Q13451 1-140 N63A): T1 sequence (Q13451 1-140 G64E) with N63A, E64G
# Source text: as §1, §2
# FKBP51 variant G64T = biological target: T8, FKBP51 variant G64T (Homo sapiens, UniProt Q13451, G64T); assay: Fluorescence polarization tracer binding, FKBP51 G64T; conditions: for Fold change in Kd improvement: FKBP51 G64T compared to WT; for Kd: FKBP51 G64T, 0.5 nM SAFit-FL, 5 nM Mcyc-TA or 1 nM FK [431]-TA, 30 min room temperature
# T8 construct: made in house; host or cells: E. coli BL21 (DE3)
# T8 sequence (Q13451 1-140 G64T): T1 sequence (Q13451 1-140 G64E) with E64T
# Source text: as §1, §2
# FKBP51 variant N63G = biological target: T9, FKBP51 variant N63G (Homo sapiens, UniProt Q13451, N63G); assay: Fluorescence polarization tracer binding, FKBP51 N63G; conditions: for Fold change in Kd improvement: FKBP51 N63G compared to WT; for Kd: FKBP51 N63G, 0.5 nM SAFit-FL, 5 nM Mcyc-TA or 1 nM FK [431]-TA, 30 min room temperature
# T9 construct: made in house; host or cells: E. coli BL21 (DE3)
# T9 sequence (Q13451 1-140 N63G): T1 sequence (Q13451 1-140 G64E) with N63G, E64G
# Source text: as §1, §2
Compound,Fold change in Kd improvement (FKBP51 variant G64E),Kd (FKBP51 variant G64E),Fold change in Kd improvement (FKBP51 variant G64R),Kd (FKBP51 variant G64R),Fold change in Kd improvement (FKBP51 variant D68Y),Fold change in Kd improvement (FKBP51 variant D68Y; listed as 3),Kd (FKBP51 variant D68Y),Fold change in Kd improvement (FKBP51 variant G64A),Kd (FKBP51 variant G64A),Fold change in Kd improvement (FKBP51 variant S69Y),Kd (FKBP51 variant S69Y),Fold change in Kd improvement (FKBP51 variant G64D),Kd (FKBP51 variant G64D),Fold change in Kd improvement (FKBP51 variant N63A),Kd (FKBP51 variant N63A),Fold change in Kd improvement (FKBP51 variant G64T),Kd (FKBP51 variant G64T),Fold change in Kd improvement (FKBP51 variant N63G),Kd (FKBP51 variant N63G)
CN(C)c1ccc2c(-c3cc(C(=O)NCCn4cc([C@H]5CN(Cc6ccccn6)C(=O)[C@@H]6CCC[C@H]5N6S(=O)(=O)c5cc(Cl)cc(Cl)c5)nn4)ccc3C(=O)O)c3ccc(=[N+](C)C)cc-3oc2c1 [FK [431]-TA],0.268 fold,19 ± 1 nM,0.159 fold,32 ± 2 nM,0.134 fold,no improvement,38 ± 2 nM,0.084 fold,61 ± 2 nM,0.077 fold,66 ± 2 nM,0.300 fold,17 ± 1 nM,0.850 fold,6 ± 0.2 nM,0.084 fold,61 ± 2 nM,0.850 fold,6 ± 0.2 nM
COc1ccc(CC[C@H]2OC(=O)[C@@H]3CCCCN3C(=O)[C@@H](C3CCCCC3)NC(=O)C(C)(C)NC(=O)COc3cc(OCCNC(=O)c4ccc(C(=O)O)c(-c5c6ccc(=[N+](C)C)cc-6oc6cc(N(C)C)ccc56)c4)cc2c3)cc1OC [Mcyc-TA],7.27 fold,3.3 ± 0.3 nM,2.42 fold,9.9 ± 1 nM,34 fold and 34.29 fold,,0.7 ± 0.1 nM,5.71 fold,4.2 ± 0.5 nM,1.41 fold,17 ± 1 nM,2.76 fold,8.7 ± 1 nM,5.58 fold,4.3 ± 0.5 nM,1.41 fold,17 ± 1 nM,3.16 fold,7.6 ± 0.9 nM
